Converted amounts (≈) assume the structure as drawn.

Test [1] has as its system biofilms of MRSA and P. aeruginosa. The conditions noted are these: understanding of the inventors, no own test described; cited from earlier work.
The test system of test [2] is MRSA. In words: MIC in CAMHB, 96-well plate (10^5 to 10^2 CFU/mL in 24 hours). It counts as cell-based, methicillin-resistant Staphylococcus aureus. The conditions noted are these: Staphylococcus aureus, MRSA, Table 5, class symbols. How it is done:
(§1) To determine the MIC of polyamine compounds, the protocol described herein was used.
In brief, a 0.5 McFarland of each bacterial isolate was made. A 0.5 McFarland is a measure of turbidity in a liquid sample that contains approximately 1×10̂^8 CFU/mL. The 0.5 McFarland standard was diluted in cation adjusted Mueller Hinton Broth (CAMHB), and […], of broth were added to a well of a 96-well plate. In addition, 50 μL of CAMHB that contained a desired concentration of antimicrobial were also added to the well for a final volume of 100 and a final concentration of approximately 5×10^4 CFU/well (which equated to approximately 5×10^5 CFU/mL). Each well contained a desired amount of polyamine compound in order to experimentally determine the MIC. Each 96-well plate was incubated at 37° C. for 24 hours. The contents of each well were plated on tryptic soy agar (TSA). TSA plates were incubated for 37° C. for 24 hours after which the number of CFU were counted and used to calculate the CFU/mL that remained after exposure to varying concentrations of compound. This procedure was repeated n=8 times for each concentration of antimicrobial. […]

A further test has as its system P. aeruginosa. The test is described as above. It counts as cell-based. The conditions noted are these: Pseudomonas aeruginosa, Table 5, class symbols. Here is the method: as §1
In brief, a 0.5 McFarland of each bacterial isolate was made. A 0.5 McFarland is a measure of turbidity in a liquid sample that contains approximately 1×10̂^8 CFU/mL. The 0.5 McFarland standard was diluted in cation adjusted Mueller Hinton Broth (CAMHB), and […], of broth were added to a well of a 96-well plate. In addition, 50 μL of CAMHB that contained a desired concentration of antimicrobial were also added to the well for a final volume of 100 and a final concentration of approximately 5×10^4 CFU/well (which equated to approximately 5×10^5 CFU/mL). Each well contained a desired amount of polyamine compound in order to experimentally determine the MIC. Each 96-well plate was incubated at 37° C. for 24 hours. The contents of each well were plated on tryptic soy agar (TSA). TSA plates were incubated for 37° C. for 24 hours after which the number of CFU were counted and used to calculate the CFU/mL that remained after exposure to varying concentrations of compound. This procedure was repeated n=8 times for each concentration of antimicrobial.

In the next test the test system is biofilm formation. Conditions: Kolodkin-Gal et al., Cell 149 (2012), cited from earlier work.
In test [3] the test system is MRSA. In words: MIC against MRSA as defined by CLSI (FIG. 25 series). The conditions noted are these: Staphylococcus aureus. It counts as cell-based, methicillin-resistant Staphylococcus aureus. How it is done:
To determine the MIC of the polyamine chains alone and the synthesized compounds against MRSA and P. aeruginosa ATCC 27853, a modified protocol from the Clinical and Laboratory Standards Institute (CLSI) guideline M26-A was used. […] All data was collected using cation adjusted MHB for standardization.
As mentioned, MRSA and P. aeruginosa ATCC 27853 were grown on Columbia blood agar plates prior to experimentation. From the blood agar plates, a 0.5 McFarland standard was made of each isolate. This equated to approximately 5×10^7 cells/mL for the MRSA isolate and approximately 3×10^7 cells/mL for the P. aeruginosa ATCC 27853 isolate. Of the 0.5 McFarland stock solution, 50 μL were added to MHB. […] All tests were performed such that a final volume of 5 mL of MHB were obtained. This provided a final bacterial concentration of approximately 5×10^5 cells/mL.
Each sample was incubated in glass test tubes at 37° C. for 24 hours, then plated in duplicate on tryptic soy agar (TSA) using a 10-fold dilution series. TSA plates were further incubated 24 hours at 37° C. The number of colony forming units (CFU) that grew were counted in order to calculate the number of bacteria that were present per mL in the original MHB solution.

In the case of `N=C(NCCCCCCNC(=N)NC(=N)Nc1ccc(Cl)cc1)NC(=N)Nc1ccc(Cl)cc1.O=C(O)[C@H](O)[C@@H](O)[C@H](O)[C@H](O)CO.O=C(O)[C@H](O)[C@@H](O)[C@H](O)[C@H](O)CO` [chlorhexidine gluconate], in test [1], the “biofilm dispersal effect (comparison antimicrobials)” value was “not seen”. With `NCCCNCCCNCCCNCc1cccc(CNCCCNCCCNCCCN)c1` [CZ-57], the values for the minimum inhibitory concentration (MIC) in the test with MRSA [2] and against P. aeruginosa were below 50 µM and above 100 µM, respectively.

As for `NCCCNCCCNCc1cc(CNCCCNCCCN)cc(-c2ccc3c(c2)OCO3)c1` [CZ-61], the MIC in the test with MRSA [2] and in the test on P. aeruginosa was below 50 µM throughout. For `NCCCNCCCNCc1cccc(CO)c1` [CZ-22], the MIC – broadly, the smallest concentration in the dilution series that meets the test's criterion for growth inhibition – in the test with MRSA [2] lay within 50 to 100 µM (≈ 12.6 to 25.1 µg/mL). In the case of `NCCCCNCCCN` [spermidine], in the test on biofilm formation (only active at much higher concentrations), the “concentration at which active” value was around 1 mM.

As to `NCCCNCCCNCc1cc(CNCCCNCCCN)cc(-c2ccc(OC(F)(F)F)c(CNCCCNCCCN)c2)c1` [CZ-69], the minimum inhibitory concentration (MIC) in the test on MRSA [2] and against P. aeruginosa was below 50 µM in each case.

On to `NCCCNC(=O)c1cccc(C(=O)NCCCN)c1` [CZ-40], for which, in the test with P. aeruginosa, the minimal inhibitory concentration (MIC) is above 100 µM. Consider `NCCCNCCCNCc1ccc(-c2cc(CNCCCNCCCN)cc(CNCCCNCCCN)c2)cc1` [CZ-65], for which the minimum inhibitory concentration (MIC) with MRSA [2] and in the test with P. aeruginosa was below 50 µM throughout. In the case of `Cc1ccccc1-c1cc(CNCCCNCCCN)cc(CNCCCNCCCN)c1` [CZ-63], the minimum inhibitory concentration (MIC) in the test with MRSA [2] and against P. aeruginosa was below 50 µM throughout. Consider `NCCCNCCCNCc1cccc(-c2cc(CNCCCNCCCN)cc(CNCCCNCCCN)c2)c1` [CZ-62], for which the MIC against MRSA [2] and in the test on P. aeruginosa was below 50 µM each time. Take `CC(C)(C)OC(=O)NCCCNCCCNCc1cc(CNCCCNCCCN)cc(CNCCCNCCCNC(=O)OC(C)(C)C)c1` [CZ-54]: the minimum inhibitory concentration (MIC) against MRSA [2] and against P. aeruginosa was below 50 µM throughout. The compound `NCCCCNCc1ccccc1` [CZ-3] gave an MIC against MRSA [2] above 100 µM. For the compound `NCCCNCCCN` [norspermidine, N-(3-aminopropyl)propane-1,3-diamine], the “concentration at which biofilm formation is inhibited” value in the test with biofilm formation was 25 µM. `NCCCCCCNCc1cccc(CNCCCCCCN)c1` [CZ-26]: the figures for the MIC in the test with MRSA [2] and against P. aeruginosa were 50 to 100 µM (≈ 16.7 to 33.5 µg/mL) and above 100 µM, respectively. Taken in the same sequence, the figures for `COc1ccc(-c2cc(CNCCCNCCCN)cc(CNCCCNCCCN)c2)cn1` [CZ-72] were below 50 µM and below 50 µM. On to `NCCCNCCCNCc1cc(CNCCCNCCCN)cc(-c2ccncc2)c1` [CZ-71], for which the MIC against MRSA [2] was below 50 µM; with P. aeruginosa it was above 100 µM. Taken in the same sequence, the figures for `CN(C)CCCNCCCNCc1cccc(CNCCCNCCCN(C)C)c1` [CZ-43] were above 100 µM and above 100 µM. `Cc1cc(C)c(CNCCCN)c(C)c1CNCCCN` [CZ-19]: in the test on MRSA [2], the minimum inhibitory concentration (MIC) was above 100 µM. Still for that read-out and setting: then `CN(C)CCCNCCCNCc1ccccc1` [CZ-6], with above 100 µM. `NCCCNCc1cc(CNCCCN)cc(CNCCCN)c1` [CZ-32]: the results for the MIC against MRSA [3], against MRSA [2] and against P. aeruginosa were 45 µg/mL (≈ 134 µM), 50 to 100 µM (≈ 16.8 to 33.7 µg/mL) and 50 to 100 µM (≈ 16.8 to 33.7 µg/mL), respectively. The compound `NCCCNCc1cccc(CNCCCN)c1` [CZ-12] yielded an MIC in the test on P. aeruginosa above 100 µM. On to `CC(C)Oc1ccc(-c2cc(CNCCCNCCCN)cc(CNCCCNCCCN)c2)cc1CNCCCNCCCN` [CZ-66], for which the MIC in the test with MRSA [2] and in the test with P. aeruginosa was below 50 µM in each case. For the compound `NCCCNCCCNCc1cc(CO)cc(CNCCCNCCCN)c1` [CZ-53], the MIC is below 50 µM in the test with MRSA [2] and 50 to 100 µM (≈ 19.7 to 39.5 µg/mL) against P. aeruginosa. The matching figures for `NCCCCCCNCc1cc(CNCCCCCCN)cc(CNCCCCCCN)c1` [CZ-33]: 50 to 100 µM (≈ 23.1 to 46.3 µg/mL) and above 100 µM. The matching figures for `NCCCNCCCNCCCNCc1cc(CNCCCNCCCNCCCN)cc(-c2ccccc2)c1` [CZ-73]: below 50 µM and below 50 µM. In the case of `O=CCCCC=O` [glutaraldehyde], the “biofilm dispersal effect (comparison antimicrobials)” value in test [1] was “not seen”.

On to `NCCCNCCCNCCCNCc1ccccc1` [CZ-16], for which the minimal inhibitory concentration (MIC) in the test with MRSA [2] was above 100 µM.

The record behind these values is patent US20150274639A1, “METHODS OF USE FOR COMPOSITIONS COMPRISING A BIOCIDAL POLYAMINE” (Curza Global, LLC, priority 2013, published 2015).
